# Patent US11459325B2, “Heterocyclic compound” (Takeda Pharmaceutical Company Limited, priority 2018, dated 2022)
# System: GBA mutant human fibroblasts GM008760
# Assay: Glucosylceramide lowering assay
# Type: cell-based
# Conditions: 10 μM test compound, 4 days culture; GlcCer (C16:0)/Cer (C16:0) molar ratio of test compound group relative to DMSO control group x100; smaller value = glucosylceramide lowering
# In short: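 Fibroblasts with mutant GBA were treated with 10 μM compound for 4 days. Lipids extracted in ethanol/isopropanol with deuterated internal standard; GlcCer (C16:0) and Cer (C16:0) quantified by RapidFire-MS/MS. Value is GlcCer/Cer ratio relative to DMSO control ×100.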
row,SMILES,10 μM GlcCer/Cer (% of control)
1,"Cc1cn(C)c(=O)c2c(C(=O)N3CC4CC4(c4ccc(OC(F)(F)F)cc4)C3)cnn12 (centres unmarked) [Example 309, 5,7-dimethyl-3-((1-(4-(trifluoromethoxy)phenyl)-3-azabicyclo[3.1.0]hex-3-yl)carbonyl)pyrazolo[1,5-a]pyrazin-4(5H)-one]",44 % of control
2,"Cc1cn(C)c(=O)c2c(C(=O)N3CC4CC4(c4ccc(OC(F)(F)F)cc4)C3)cnn12 (centres unmarked) [Example 310, 5,7-dimethyl-3-((1-(4-(trifluoromethoxy)phenyl)-3-azabicyclo[3.1.0]hex-3-yl)carbonyl)pyrazolo[1,5-a]pyrazin-4(5H)-one]",68 % of control

# Same assay, conditions: Homo sapiens, Fibroblast, 96 h; 10 μM test compound, 4 days culture; GlcCer (C16:0)/Cer (C16:0) molar ratio of test compound group relative to DMSO control group x100; smaller value = glucosylceramide lowering
row,SMILES,activity at 10 µM
1,"COc1ccccc1-n1cc(C)n2ncc(C(=O)Nc3ccc(N4CCOCC4)cc3)c2c1=O [Example 311, 5-(2-methoxyphenyl)-7-methyl-N-(4-(morpholin-4-yl)phenyl)-4-oxo-4,5-dihydropyrazolo[1,5-a]pyrazine-3-carboxamide]",54%
2,"Cc1cn(C)c(=O)c2c(C(=O)N3CCC(Oc4ccc(C(F)(F)F)cc4)CC3)cnn12 [Example 313, 5,7-dimethyl-3-((4-(4-(trifluoromethyl)phenoxy)piperidin-1-yl)carbonyl)pyrazolo[1,5-a]pyrazin-4(5H)-one]",52%
3,"Cc1cn(CC#N)c(=O)c2c(C(=O)N3CCC(Oc4ccc(Cl)cc4)CC3)cnn12 [Example 330, {3-[4-(4-chlorophenoxy)piperidine-1-carbonyl]-7-methyl-4-oxopyrazolo[1,5-a]pyrazin-5(4H)-yl}acetonitrile]",68%
4,"Cc1cn(-c2ccccc2OCC(F)(F)F)c(=O)c2c(C(=O)Nc3ccc(N4CCOCC4)cc3)cnn12 [Example 334, 7-methyl-N-[4-(morpholin-4-yl)phenyl]-4-oxo-5-[2-(2,2,2-trifluoroethoxy)phenyl]-4,5-dihydropyrazolo[1,5-a]pyrazine-3-carboxamide]",27%
5,"Cc1cn(-c2ccccc2OCC(F)(F)F)c(=O)c2c(C(=O)N3CCC(Oc4ccc(Cl)cc4)CC3)cnn12 [Example 335, 3-[4-(4-chlorophenoxy)piperidine-1-carbonyl]-7-methyl-5-[2-(2,2,2-trifluoroethoxy)phenyl]pyrazolo[1,5-a]pyrazin-4(5H)-one]",68%
6,"Cc1cn(-c2ccc(F)cc2OCC(F)(F)F)c(=O)c2c(C(=O)Nc3ccc(N4CCOCC4)cc3)cnn12 [Example 336, 5-[4-fluoro-2-(2,2,2-trifluoroethoxy)phenyl]-7-methyl-N-[4-(morpholin-4-yl)phenyl]-4-oxo-4,5-dihydropyrazolo[1,5-a]pyrazine-3-carboxamide]",42%
7,"Cc1cn(-c2ccccc2OCC(F)(F)F)c(=O)c2c(C(=O)Nc3ccc(OCC(F)(F)F)nc3)cnn12 [Example 337, 7-methyl-4-oxo-5-[2-(2,2,2-trifluoroethoxy)phenyl]-N-[6-(2,2,2-trifluoroethoxy)pyridin-3-yl]-4,5-dihydropyrazolo[1,5-a]pyrazine-3-carboxamide]",37%
8,"Cc1cn(-c2ccccc2OCC(F)(F)F)c(=O)c2c(C(=O)Nc3ccc(OC(F)F)nc3)cnn12 [Example 338, N-[6-(difluoromethoxy)pyridin-3-yl]-7-methyl-4-oxo-5-[2-(2,2,2-trifluoroethoxy)phenyl]-4,5-dihydropyrazolo[1,5-a]pyrazine-3-carboxamide]",40%
9,"CCCCO[C@H]1CC[C@H](NC(=O)c2cnn3c(C)cn(-c4ccccc4OCC(F)(F)F)c(=O)c23)CC1 [Example 339, N-[trans-4-butoxycyclohexyl]-7-methyl-4-oxo-5-[2-(2,2,2-trifluoroethoxy)phenyl]-4,5-dihydropyrazolo[1,5-a]pyrazine-3-carboxamide]",30%
10,"Cc1cn(-c2ccccc2OCC(F)(F)F)c(=O)c2c(C(=O)Nc3ccc(C(C)(C)O)cc3)cnn12 [Example 340, N-[4-(2-hydroxypropan-2-yl)phenyl]-7-methyl-4-oxo-5-[2-(2,2,2-trifluoroethoxy)phenyl]-4,5-dihydropyrazolo[1,5-a]pyrazine-3-carboxamide]",33%
11,"Cc1cn(-c2ccccc2OCC(F)(F)F)c(=O)c2c(C(=O)Nc3ccc(C4CC4)nc3)cnn12 [Example 341, N-(6-cyclopropylpyridin-3-yl)-7-methyl-4-oxo-5-[2-(2,2,2-trifluoroethoxy)phenyl]-4,5-dihydropyrazolo[1,5-a]pyrazine-3-carboxamide]",32%
12,"Cc1cn(-c2ccccc2OCC(F)(F)F)c(=O)c2c(C(=O)Nc3ccc(C#N)nc3)cnn12 [Example 342, N-(6-cyanopyridin-3-yl)-7-methyl-4-oxo-5-[2-(2,2,2-trifluoroethoxy)phenyl]-4,5-dihydropyrazolo[1,5-a]pyrazine-3-carboxamide]",28%
13,"Cc1cn(-c2ccccc2OCC(F)(F)F)c(=O)c2c(C(=O)Nc3ccc(C#N)cn3)cnn12 [Example 343, N-(5-cyanopyridin-2-yl)-7-methyl-4-oxo-5-[2-(2,2,2-trifluoroethoxy)phenyl]-4,5-dihydropyrazolo[1,5-a]pyrazine-3-carboxamide]",23%
14,"Cc1cn(C)c(=O)n2c(C(=O)NC(C)(C)c3ccc(Cl)cc3)cnc12 [Example 347, N-[2-(4-chlorophenyl)propan-2-yl]-6,8-dimethyl-5-oxo-5,6-dihydroimidazo[1,2-c]pyrimidine-3-carboxamide]",44%
15,"COc1ccccc1-n1cc(C)c2ncc(C(=O)Nc3ccc(N4CCOCC4)cc3)n2c1=O [Example 350, 6-(2-methoxyphenyl)-8-methyl-N-[4-(morpholin-4-yl)phenyl]-5-oxo-5,6-dihydroimidazo[1,2-c]pyrimidine-3-carboxamide]",54%
